# Results reported in patent US12312359B2 (Vitae Pharmaceuticals, LLC, priority 2016, dated 2025).
# pEC50, pIC50: −log10 of the molar value.
# Assays:
# [1] = target: T1, biotinylated wild-type menin and MLL-AF9 fusion protein (menin/MLL binding) (Homo sapiens, UniProt O00255); test: Assay 1: menin/MLL binding AlphaLISA assay, wild-type menin; conditions: Table 30; column head does not say wild-type or mutated menin
# T1 construct: made in house; host or cells: menin: E. coli; MLL-AF9-FLAG: HEK293 cells, used as cleared lysate
# T1 sequence (O00255 1-610): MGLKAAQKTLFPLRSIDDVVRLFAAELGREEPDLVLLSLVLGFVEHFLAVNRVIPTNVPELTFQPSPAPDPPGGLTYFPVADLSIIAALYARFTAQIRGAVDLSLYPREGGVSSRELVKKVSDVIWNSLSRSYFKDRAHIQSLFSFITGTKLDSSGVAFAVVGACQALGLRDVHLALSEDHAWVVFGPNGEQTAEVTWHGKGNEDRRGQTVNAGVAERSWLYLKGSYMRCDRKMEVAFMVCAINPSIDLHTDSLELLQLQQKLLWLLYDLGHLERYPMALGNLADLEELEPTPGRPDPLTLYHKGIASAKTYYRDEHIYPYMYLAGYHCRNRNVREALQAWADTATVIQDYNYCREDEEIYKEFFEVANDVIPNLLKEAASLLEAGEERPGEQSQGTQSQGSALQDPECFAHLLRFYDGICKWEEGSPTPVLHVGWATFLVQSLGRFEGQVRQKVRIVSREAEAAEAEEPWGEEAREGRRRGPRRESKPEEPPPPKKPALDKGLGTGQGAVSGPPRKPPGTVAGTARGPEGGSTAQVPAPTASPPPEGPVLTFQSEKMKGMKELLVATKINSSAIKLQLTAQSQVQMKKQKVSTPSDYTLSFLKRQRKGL
# Procedure, shortened: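 Compound was preincubated 30 min at room temperature with biotinylated menin (5 nM) and MLL-AF9-FLAG lysate from HEK293 cells, pH 7.4 buffer with 5% DMSO and DTT. Bead-based Alpha signal after 60 min with streptavidin donor and anti-FLAG acceptor beads; four-parameter logistic fit gave IC50.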
# [2] = test system: human acute monocytic leukemia cell line MV-4-11; test: Assay 2: cell proliferation assay (ATP quantitation, CellTiter-Glo), MV-4-11; type: cell-based; conditions: MV-4-11 cells
# Procedure, shortened: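 MV-4-11 cells, 1.67×10^4 per well in medium with 10% FBS, were exposed to compound for 72 h at 37° C., 5% CO2; HL-60 cells served as toxicity control. Proliferation read as ATP content by CellTiter-Glo luminescence.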
SMILES,pIC50 [1],"pEC50 ([2]; Homo sapiens, MV4-11, 72 h)",pEC50 ([2]; 72 h)
"CC(C)c1ncncc1-c1cc(F)ccc1Oc1cncnc1N1CC2(CC(NCc3ccc(F)cc3)CO2)C1 (stereo not shown) [Example 18, 2-(5-(4-fluoro-2-(4-isopropylpyrimidin-5-yl)phenoxy)pyrimidin-4-yl)-N-(4-fluorobenzyl)-5-oxa-2-azaspiro[3.4]octan-7-amine]",> 7.00,6.00 to 7.00,
"CC(C)N(C(=O)c1cc(F)ccc1Oc1cncnc1N1CCC2(CC(N)C(Cc3ccc4[nH]c(=O)[nH]c4c3)C2)C1)C(C)C (single isomer, unassigned) [Example 24B, 2-((4-(7-amino-8-((2-oxo-2,3-dihydro-1H-benzo[d]imidazol-5-yl)methyl)-2-azaspiro[4.4]nonan-2-yl)pyrimidin-5-yl)oxy)-5-fluoro-N,N-diisopropylbenzamide]",> 7.00,,≤ 6.00
"O=C(c1cc(F)ccc1Oc1cncnc1N1CCC2(CCN(Cc3ccc4[nH]c(=O)[nH]c4c3)C2)C1)N1C2CCC1CC2 (stereo not shown) [Example 212, 5-((7-(5-(2-((1s,4s)-7-azabicyclo[2.2.1]heptane-7-carbonyl)-4-fluorophenoxy)pyrimidin-4-yl)-2,7-diazaspiro [4.4]nonan-2-yl)methyl)-1,3-dihydro-2H-benzo[d]imidazol-2-one]",> 7.00,6.00 to 7.00,
"CC(C)N(C(=O)c1cc(F)ccc1Nc1cncnc1N1CCC2(CC1)CN(CC(C)(C)O)C2)C(C)C [Example 16, 5-fluoro-2-((4-(2-(2-hydroxy-2-methylpropyl)-2,7-diazaspiro[3.5]nonan-7-yl)pyrimidin-5-yl)amino)-N,N-diisopropylbenzamide]",> 7.00,6.00 to 7.00,
"CC(C)N(C(=O)c1cc(F)ccc1Oc1cncnc1N1CCC2(CCN(Cc3ccc4c(c3)[nH]c(=O)n4CCO)C2)C1)C(C)C (single isomer, unassigned) [Example 3B, 5-fluoro-2-((4-(7-((1-(2-hydroxyethyl)-2-oxo-2,3-dihydro-1H-benzo[d]imidazol-5-yl)methyl)-2,7-diazaspiro[4.4]nonan-2-yl)pyrimidin-5-yl)oxy)-N,N-diisopropylbenzamide]",> 7.00,,> 7.00
"Cc1cc(C#N)ccc1-c1cc(F)ccc1Oc1cncnc1N1CCC2(CCN(Cc3ccc4[nH]c(=O)[nH]c4c3)C2)C1 (stereo not shown) [Example 48, 5′-fluoro-2-methyl-2′-((4-(7-((2-oxo-2,3-dihydro-1H-benzo[d]imidazol-5-yl)methyl)-2,7-diazaspiro[4.4]nonan-2-yl)pyrimidin-5-yl)oxy)-[1,1′-biphenyl]-4-carbonitrile]",> 7.00,,6.00 to 7.00
"N#Cc1ccc(-c2cc(F)ccc2Oc2cncnc2N2CCC3(CCN(Cc4ccc5[nH]c(=O)[nH]c5c4)C3)C2)c(C2CC2)c1 (single isomer, unassigned) [Example 42A, 2-cyclopropyl-5′-fluoro-2′-((4-(7-((2-oxo-2,3-dihydro-1H-benzo[d]imidazol-5-yl)methyl)-2,7-diazaspiro[4.4]nonan-2-yl)pyrimidin-5-yl)oxy)-[1,1′-biphenyl]-4-carbonitrile]",> 7.00,> 7.00,
"CN(C)C(=O)c1ccc(-c2cc(F)ccc2Oc2cncnc2N2CCC3(CCN(Cc4ccc5[nH]c(=O)[nH]c5c4)C3)C2)c(C2CC2)c1 (stereo not shown) [Example 45, 2-cyclopropyl-5′-fluoro-N,N-dimethyl-2′-((4-(7-((2-oxo-2,3-dihydro-1H-benzo[d]imidazol-5-yl)methyl)-2,7-diazaspiro[4.4]nonan-2-yl)pyrimidin-5-yl)oxy)-[1,1′-biphenyl]-4-carboxamide]",> 7.00,> 7.00,
"CC(C)C(O)c1cc(F)ccc1Oc1cncnc1N1CCC2(CCN(Cc3ccc4c(c3)NC(=O)C4(C)C)C2)C1 (stereo not shown) [Example 10, 6-((7-(5-(4-fluoro-2-(1-hydroxy-2-methylpropyl)phenoxy)pyrimidin-4-yl)-2,7-diazaspiro[4.4]nonan-2-yl)methyl)-3,3-dimethylindolin-2-one]",> 7.00,≤ 6.00,
"Cn1c(-c2cc(F)ccc2Oc2cncnc2N2CCC3(CCN(Cc4ccc5[nH]c(=O)[nH]c5c4)C3)C2)c(C2CC2)ccc1=O (single isomer, unassigned) [Example 29B, 5-((7-(5-(2-(3-cyclopropyl-1-methyl-6-oxo-1,6-dihydropyridin-2-yl)-4-fluorophenoxy)pyrimidin-4-yl)-2,7-diazaspiro[4.4]nonan-2-yl)methyl)-1,3-dihydro-2H-benzo[d]imidazol-2-one]",> 7.00,,6.00 to 7.00

# More lines, now with the values ahead:
pIC50 [1],"pEC50 ([2]; Homo sapiens, MV4-11, 72 h)",pEC50 ([2]; 72 h),SMILES
> 7.00,> 7.00,,"CC(C)n1nccc1-c1cc(F)ccc1Oc1cncnc1N1CCC2(CCN(Cc3ccc4[nH]c(=O)[nH]c4c3)C2)C1 (stereo not shown) [Example 237, 5-((7-(5-(4-fluoro-2-(1-isopropyl-1H-pyrazol-5-yl)phenoxy)pyrimidin-4-yl)-2,7-diazaspiro[4.4]nonan-2-yl)methyl)-1,3-dihydro-2H-benzo[d]imidazol-2-one]"
> 7.00,> 7.00,,"CC(C)N(C)C(=O)c1cc(F)ccc1Oc1cncnc1N1CCC2(CCN(Cc3ccc4[nH]c(=O)[nH]c4c3)C2)C1 (single isomer, unassigned) [Example 183A, 5-fluoro-N-isopropyl-N-methyl-2-((4-(7-((2-oxo-2,3-dihydro-1H-benzo[d]imidazol-5-yl)methyl)-2,7-diazaspiro[4.4]nonan-2-yl)pyrimidin-5-yl)oxy)benzamide]"
> 7.00,6.00 to 7.00,,"CC(C)N(C(=O)c1cc(F)ccc1Oc1cncnc1N1CC2(CN(C(=O)Cc3ccc(C#N)cc3)C2)C1)C(C)C [Example 116, 2-((4-(6-(2-(4-cyanophenyl)acetyl)-2,6-diazaspiro[3.3]heptan-2-yl)pyrimidin-5-yl)oxy)-5-fluoro-N,N-diisopropylbenzamide]"
> 7.00,> 7.00,,"CCN(C(=O)OC)c1cc(F)ccc1Oc1cncnc1N1CCC2(CCN(Cc3ccc4[nH]c(=O)[nH]c4c3)C2)C1 (stereo not shown) [Example 91, methyl ethyl(5-fluoro-2-((4-(7-((2-oxo-2,3-dihydro-1H-benzo[d]imidazol-5-yl)methyl)-2,7-diazaspiro [4.4]nonan-2-yl)pyrimidin-5-yl)oxy)phenyl) carbamate]"
> 7.00,> 7.00,,"CC(C)N(C(=O)c1cc(F)ccc1Oc1cncnc1N1CC2(CCN(C[C@H]3CC[C@H](NC(=O)OC(C)(C)C)CC3)CC2)C1)C(C)C [Example 99A, tert-butyl ((1r,4r)-4-((2-(5-(2-(diisopropylcarbamoyl)-4-fluorophenoxy)pyrimidin-4-yl)-2,7-diazaspiro[3.5]nonan-7-yl)methyl)cyclohexyl)carbamate]"
> 7.00,> 7.00,,"O=c1[nH]c2ccc(CN3CCC4(CCN(c5ncncc5Oc5ccc(F)cc5CN5CCOCC5)C4)C3)cc2[nH]1 (stereo not shown) [Example 70, 5-((7-(5-(4-fluoro-2-(morpholinomethyl)phenoxy)pyrimidin-4-yl)-2,7-diazaspiro[4.4]nonan-2-yl)methyl)-1H-benzo[d]imidazol-2(3H)-one]"
> 7.00,6.00 to 7.00,,"COC(=O)Nc1cccc(CN2CCC3(CCN(c4ncncc4Oc4ccc(F)cc4-c4ccc(C#N)cc4C4CC4)C3)C2)c1 (stereo not shown) [Example 170, methyl (3-((7-(5-((4′-cyano-2′-cyclopropyl-5-fluoro-[1,1′-biphenyl]-2-yl)oxy)pyrimidin-4-yl)-2,7-diazaspiro[4.4]nonan-2-yl)methyl)phenyl) carbamate]"
> 7.00,,≤ 6.00,"N#Cc1ccc(-c2cc(F)cc(F)c2Oc2cncnc2N2CCC3(CCN(Cc4ccc5[nH]c(=O)[nH]c5c4)C3)C2)c(C2CC2)c1 (stereo not shown) [Example 199, 2-cyclopropyl-3′,5′-difluoro-2′-((4-(7-((2-oxo-2,3-dihydro-1H-benzo[d]imidazol-5-yl)methyl)-2,7-diazaspiro[4.4]nonan-2-yl)pyrimidin-5-yl)oxy)-[1,1′-biphenyl]-4-carbonitrile]"
> 7.00,> 7.00,,"CC(C)(O)c1ccccc1-c1cc(F)ccc1Oc1cncnc1N1CCC2(CCN(Cc3ccc4[nH]c(=O)[nH]c4c3)C2)C1 (stereo not shown) [Example 63, 5-((7-(5-((5-fluoro-2′-(2-hydroxypropan-2-yl)-[1,1′-biphenyl]-2-yl)oxy)pyrimidin-4-yl)-2,7-diazaspiro[4.4]nonan-2-yl)methyl)-1H-benzo[d]imidazol-2(3H)-one]"
> 7.00,6.00 to 7.00,,"CC(C)c1ncncc1-c1cc(F)ccc1Oc1cncnc1N1CC2(CC(N(C)Cc3ccc(C#N)cc3)CO2)C1 (stereo not shown) [Example 181, 4-(((2-(5-(4-fluoro-2-(4-isopropylpyrimidin-5-yl)phenoxy)pyrimidin-4-yl)-5-oxa-2-azaspiro[3.4]octan-7-yl)(methyl)amino)methyl)benzonitrile]"
